Reference: patent US20250136722A1, “CYTOTOXICITY TARGETING CHIMERAS” (GLAXOSMITHKLINE INTELLECTUAL PROPERTY DEVELOPMENT LIMITED, priority 2021, published 2025)
Where a name gives a salt, the structure may show the parent alone.

molecular target: T1, CHOK1 cells engineered to overexpress human CCR2 (Homo sapiens, UniProt P41597); experiment: Antibody dependent cellular cytotoxicity (ADCC) reporter assay (Example 199); assay type: cell-based; settings: with anti-cotinine antibody SEQ ID NO: 11/12; CHOK1-human CCR2 target cells, Jurkat FcγRIIIa NFAT-luciferase reporter cells; 12-18 hours; read-out: ADCC Reporter Assay pEC50 (converted)
T1 construct: expressed in transfected cells; host or cells: CHOK1 cells
Experimental: An antibody dependent cellular cytoxicity reporter assay was conducted using the following four assay components: (i) ARM compound of Formula (I) targeting CCR2 (concentrations ranging from 1 pM to 10 μM) (ii) anti-cotinine antibody having a heavy chain sequence of SEQ ID NO: 11 and a light chain sequence of SEQ ID NO: 12 (rabbit variable region with human IgG1 Fc domain containing a DE mutation (S239D/1332E)) (concentrations ranging from 0.01 μg/mL to 200 μg/mL); (iii) target cells: CHOK1 cells engineered to overexpress either human CCR2 (typically 1000-20,000 cells per well) and (iv) reporter cells: Jurkat cells engineered to express FcγRIIIa with the reporter gene luciferase under the control of the NFAT promoter (typically 3000-75,000 cells per well). Reagents were combined in a final volume of 20 μL in a 384-well tissue culture treated plate. All four assay components were incubated together for about 12-18 hours. Thereafter, BioGlo Detection reagent (Promega) was added to the wells to lyse the cells and provide a substrate for the luciferase reporter protein. Luminescence signal was measured on a microplate reader and signal:background was calculated by dividing the signal of a test well by the signal obtained when no heterobivalent compound of Formula (I) was added. EC50 calculations were done using Graphpad Prism Software, specifically a nonlinear regression curve fit (Y=Bottom+(Top−Bottom)/(1+10^((Log EC50−X)*HillSlope))).
ARMs compounds of Formula (I) of the invention were tested for ADCC activity in the above assay in or more experimental runs and the results are shown in Table 3 below. Potency of the compounds of Formula (I) of the invention is reported as a pEC50 value. The pEC50 value is the negative log of the EC50 value, wherein the EC50 value is the half maximal effective concentration measured in molar (M). For compounds tested in more than one experimental run, the pEC50 value is reported as an average.

Q: `CC(C)N(C)[C@@H]1CC[C@H](N2CC[C@H](Nc3ncnc4ccc(C(F)(F)F)cc34)C2=O)[C@H](NC(=O)c2cnn(C3CCN(CCOCCOCCOCCNC(=O)[C@H]4CC(=O)N(C)[C@@H]4c4cccnc4)CC3)c2)C1` [Example 129, N-((1R,2S,5R)-5-(Isopropyl(methyl)amino)-2-((S)-2-oxo-3-((6-(trifluoromethyl)quinazolin-4-yl)amino)pyrrolidin-1-yl)cyclohexyl)-1-(1-(1-((2S,3S)-1-methyl-5-oxo-2-(pyridin-3-yl)pyrrolidin-3-yl)-1-oxo-5,8,11-trioxa-2-azatridecan-13-yl)piperidin-4-yl)-1H-pyrazole-4-carboxamide] was tested. Which EC50 did it give?
A: The EC50 was 5.01 nM.

Q: For `CC(C)N(C)[C@@H]1CC[C@H](N2CC[C@H](Nc3ncnc4ccc(C(F)(F)F)cc34)C2=O)[C@H](NC(=O)C2CCC(N3CC(C(=O)NCCOCCOCCNC(=O)[C@H]4CC(=O)N(C)[C@@H]4c4cccnc4)C3)CC2)C1` (stereo partly shown) [Example 131], which EC50 is on record?
A: Its EC50 is 3.16 nM.

Q: For `CC(C)N(C)[C@@H]1CC[C@H](N2CC[C@H](Nc3ncnc4ccc(C(F)(F)F)cc34)C2=O)[C@H](NC(=O)[C@H]2CC[C@@H](N3CCC(C(=O)NCCOCCOCCNC(=O)[C@H]4CC(=O)N(C)[C@@H]4c4cccnc4)C(F)(F)C3)CC2)C1` (stereo partly shown) [Example 132], which EC50 is on record?
A: The EC50 was 3.16 nM.

Q: How did the EC50 turn out when `CC(C)N(C)[C@@H]1CC[C@H](N2CC[C@H](Nc3ncnc4ccc(C(F)(F)F)cc34)C2=O)[C@H](NC(=O)c2ccc([C@H]3CC[C@@H](C(=O)NCCOCCOCCNC(=O)[C@H]4CC(=O)N(C)[C@@H]4c4cccnc4)CC3)cc2)C1` [Example 133] was run?
A: Its EC50 is 5.01 nM.

Q: With `CC(C)N(C)[C@@H]1CC[C@H](N2CC[C@H](Nc3ncnc4ccc(C(F)(F)F)cc34)C2=O)[C@H](NC(=O)[C@H]2CC[C@@H](N3CCC(C(=O)NCCOCCOCCNC(=O)[C@H]4CC(=O)N(C)[C@@H]4c4cccnc4)CC3)CC2)C1` [Example 134] as the molecule, how does the EC50 read?
A: Its EC50 is 0.0631 nM.

Q: Which EC50 does the source give for `CC(C)N(C)[C@@H]1CC[C@H](N2CC[C@H](Nc3ncnc4ccc(C(F)(F)F)cc34)C2=O)[C@H](NC(=O)[C@H]2CC[C@H](N3CCC(C(=O)NCCOCCOCCNC(=O)[C@H]4CC(=O)N(C)[C@@H]4c4cccnc4)CC3)CC2)C1` [Example 135] here?
A: Its EC50 is 2.51 nM.

Q: How did the EC50 turn out when `CC(C)N(C)[C@@H]1CC[C@H](N2CC[C@H](Nc3ncnc4ccc(C(F)(F)F)cc34)C2=O)[C@H](NC(=O)CNC(=O)[C@H]2CC[C@@H](NC(=O)COCCOCCNC(=O)[C@H]3CC(=O)N(C)[C@@H]3c3cccnc3)CC2)C1` [Example 136, (2S,3S)-N-(2-(2-(2-(((1S,4R)-4-((2-(((1R,2S,5R)-5-(Isopropyl(methyl)amino)-2-((S)-2-oxo-3-((6-(trifluoromethyl)quinazolin-4-yl)amino)pyrrolidin-1-yl)cyclohexyl)amino)-2-oxoethyl)carbamoyl)cyclohexyl)amino)-2-oxoethoxy)ethoxy)ethyl)-1-methyl-5-oxo-2-(pyridin-3-yl)pyrrolidine-3-carboxamide] was run?
A: Its EC50 is 4.91 nM.

Q: How did the EC50 turn out when `CC(C)N(C)[C@@H]1CC[C@H](N2CC[C@H](Nc3ncnc4ccc(C(F)(F)F)cc34)C2=O)[C@H](NC(=O)[C@H]2CC[C@H](c3ccc(C(=O)NCCOCCOCCNC(=O)[C@H]4CC(=O)N(C)[C@@H]4c4cccnc4)cn3)CC2)C1` [Example 139, 6-((1R,4r)-4-(((1R,2S,5R)-5-(Isopropyl(methyl)amino)-2-((S)-2-oxo-3-((6-(trifluoromethyl)quinazolin-4-yl)amino)pyrrolidin-1-yl)cyclohexyl)carbamoyl)cyclohexyl)-N-(2-(2-(2-((2S,3S)-1-methyl-5-oxo-2-(pyridin-3-yl)pyrrolidine-3-carboxamido)ethoxy)ethoxy)ethyl)nicotinamide] was run?
A: The EC50 was 3.98 nM.

Q: Which EC50 does the source give for `CC(C)N(C)[C@@H]1CC[C@H](N2CC[C@H](Nc3ncnc4ccc(C(F)(F)F)cc34)C2=O)[C@H](NC(=O)[C@H]2CC[C@H](c3ccc(C(=O)NCCOCCOCCNC(=O)[C@H]4CC(=O)N(C)[C@@H]4c4cccnc4)nc3)CC2)C1` [Example 141] here?
A: Its EC50 is 2 nM.

Q: How did the EC50 turn out when `CC(C)N(C)[C@@H]1CC[C@H](N2CC[C@H](Nc3ncnc4ccc(C(F)(F)F)cc34)C2=O)[C@H](NC(=O)C2CCN(CCCCCCCCNC(=O)[C@H]3CC(=O)N(C)[C@@H]3c3cccnc3)CC2)C1` [Example 144, N-((1R,2S,5R)-5-(Isopropyl(methyl)amino)-2-((S)-2-oxo-3-((6-(trifluoromethyl)quinazolin-4-yl)amino)pyrrolidin-1-yl)cyclohexyl)-1-(8-((2S,3S)-1-methyl-5-oxo-2-(pyridin-3-yl)pyrrolidine-3-carboxamido)octyl)piperidine-4-carboxamide, 3Formic acid salt] was run?
A: The EC50 was 3.16 nM.

Q: With `CC(C)N(C)[C@@H]1CC[C@H](N2CC[C@H](Nc3ncnc4ccc(C(F)(F)F)cc34)C2=O)[C@H](NC(=O)[C@H]2CC[C@@H](N3CCN(CCCCCCCCNC(=O)[C@H]4CC(=O)N(C)[C@@H]4c4cccnc4)CC3)CC2)C1` [Example 145] as the molecule, how does the EC50 read?
A: Its EC50 is 1.58 nM.

Q: For `CC(C)N(C)[C@@H]1CC[C@H](N2CC[C@H](Nc3ncnc4ccc(C(F)(F)F)cc34)C2=O)[C@H](NC(=O)[C@H]2CC[C@H](N3CCN(CCCCCCCCNC(=O)[C@H]4CC(=O)N(C)[C@@H]4c4cccnc4)CC3)CC2)C1` [Example 146], which EC50 is on record?
A: Its EC50 is 0.251 nM.

Q: For `CC(C)N(C)[C@@H]1CC[C@H](N2CC[C@H](Nc3ncnc4ccc(C(F)(F)F)cc34)C2=O)[C@H](NC(=O)C2CCN(CCOCCOCCOCCOCCNC(=O)[C@H]3CC(=O)N(C)[C@@H]3c3cccnc3)CC2)C1` [Example 147], which EC50 is on record?
A: The EC50 was 1.26 nM.

Q: For `CC(C)N(C)[C@@H]1CC[C@H](N2CC[C@H](Nc3ncnc4ccc(C(F)(F)F)cc34)C2=O)[C@H](NC(=O)[C@H]2CC[C@@H](C(=O)NCCCN3CCN(CCCNC(=O)[C@H]4CC(=O)N(C)[C@@H]4c4cccnc4)CC3)CC2)C1` [Example 150, (1 s,4S)-N^1-((1R,2S,5R)-5-(Isopropyl(methyl)amino)-2-((S)-2-oxo-3-((6-(trifluoromethyl)quinazolin-4-yl)amino)pyrrolidin-1-yl)cyclohexyl)-N^4-(3-(4-(3-((2S,3S)-1-methyl-5-oxo-2-(pyridin-3-yl)pyrrolidine-3-carboxamido)propyl)piperazin-1-yl)propyl)cyclohexane-1,4-dicarboxamide], which EC50 is on record?
A: Its EC50 is 3.16 nM.

Q: With `CC(C)N(C)[C@@H]1CC[C@H](N2CC[C@H](Nc3ncnc4ccc(C(F)(F)F)cc34)C2=O)[C@H](NC(=O)COCCCCCCCCCOCCCCCCCNC(=O)[C@H]2CC(=O)N(C)[C@@H]2c2cccnc2)C1` [Example 153, (2S,3S)-N-(7-((9-(2-(((1R,2S,5R)-5-(Isopropyl(methyl)amino)-2-((S)-2-oxo-3-((6-(trifluoromethyl)quinazolin-4-yl)amino)pyrrolidin-1-yl)cyclohexyl)amino)-2-oxoethoxy)nonyl)oxy)heptyl)-1-methyl-5-oxo-2-(pyridin-3-yl)pyrrolidine-3-carboxamide] as the molecule, how does the EC50 read?
A: Its EC50 is 2.51 nM.

Q: `CC(C)N(C)[C@@H]1CC[C@H](N2CC[C@H](Nc3ncnc4ccc(C(F)(F)F)cc34)C2=O)[C@H](NC(=O)[C@H]2CC[C@H](N3CCN(C(=O)CCCCCCCCNC(=O)[C@H]4CC(=O)N(C)[C@@H]4c4cccnc4)CC3)CC2)C1` [Example 155] was tested. Which EC50 did it give?
A: Its EC50 is 1.58 nM.

Q: Which EC50 does the source give for `CC(C)N(C)[C@@H]1CC[C@H](N2CC[C@H](Nc3ncnc4ccc(C(F)(F)F)cc34)C2=O)[C@H](NC(=O)c2cnn(C3CCN(C(=O)CCCCCCCCCCNC(=O)[C@H]4CC(=O)N(C)[C@@H]4c4cccnc4)CC3)c2)C1` [Example 156] here?
A: The EC50 was 0.794 nM.

Q: Which EC50 does the source give for `CC(C)N(C)[C@@H]1CC[C@H](N2CC[C@H](Nc3ncnc4ccc(C(F)(F)F)cc34)C2=O)[C@H](NC(=O)C2CC=C(c3ccc(OCCCCCCNC(=O)[C@H]4CC(=O)N(C)[C@@H]4c4cccnc4)cc3)CC2)C1` (stereo partly drawn) [Example 158, (2S,3S)-N-(6-((4′-(((1R,2S,5R)-5-(Isopropyl(methyl)amino)-2-((S)-2-oxo-3-((6-(trifluoromethyl)quinazolin-4-yl)amino)pyrrolidin-1-yl)cyclohexyl)carbamoyl)-2′,3′,4′,5′-tetrahydro-[1,1′-biphenyl]-4-yl)oxy)hexyl)-1-methyl-5-oxo-2-(pyridin-3-yl)pyrrolidine-3-carboxamide] here?
A: Its EC50 is 2.51 nM.

Q: Which EC50 does the source give for `CC(C)N(C)[C@@H]1CC[C@H](N2CC[C@H](Nc3ncnc4ccc(C(F)(F)F)cc34)C2=O)[C@H](NC(=O)CCCCCCCCC(=O)NCCOCCOCCNC(=O)[C@H]2CC(=O)N(C)[C@@H]2c2cccnc2)C1` [Example 159, N^1-((1R,2S,5R)-5-(isopropyl(methyl)amino)-2-((S)-2-oxo-3-((6-(trifluoromethyl)quinazolin-4-yl)amino)pyrrolidin-1-yl)cyclohexyl)-N^10-(2-(2-(2-((2S,3S)-1-methyl-5-oxo-2-(pyridin-3-yl)pyrrolidine-3-carboxamido)ethoxy)ethoxy)ethyl)decanediamide] here?
A: The EC50 was 2 nM.
